Nine compounds from ChEMBL document CHEMBL3044693, “Synthesis and antihyperlipidemic activity of novel condensed 2-fluoromethylpyrimidines” (2013) can be followed below.

SMILES strings stand for the structures.

Holding throughout (type): functional
Experiment [1] deals with Rattus norvegicus. As to the kind of experiment: Antihyperlipidemic activity in high fat diet fed Sprague-Dawley Rattus norvegicus (rat) assessed as decrease in serum LDL level at 50 mg/kg, po daily for 7 days measured on day 8 relative to untreated control. More on the design: scale not given: the % may be the effect or the level left.
Experiment [2] has as its system Rattus norvegicus. The experiment can be described thus: Antihyperlipidemic activity in high fat diet fed Sprague-Dawley Rattus norvegicus (rat) assessed as increase in serum HDL level at 50 mg/kg, po daily for 7 days measured on day 8 relative to untreated control.
For experiment [3], the system named is Rattus norvegicus. The experiment can be described thus: Antihyperlipidemic activity in high fat diet fed Sprague-Dawley Rattus norvegicus (rat) assessed as coronary risk index at 50 mg/kg, po daily for 7 days measured on day 8 (reference value: 5.21 +/-1.76 no unit).
In experiment [4] the test system is Rattus norvegicus. The experiment can be described thus: Antihyperlipidemic activity in high fat diet fed Sprague-Dawley Rattus norvegicus (rat) assessed as atherogenic index at 50 mg/kg, po daily for 7 days measured on day 8 (reference value: 4.15 +/-0.23 no unit).
Experiment [5] relates to Rattus norvegicus. As to the kind of experiment: Antihyperlipidemic activity in high fat diet fed Sprague-Dawley Rattus norvegicus (rat) assessed as decrease in serum triglyceride level at 50 mg/kg, po daily for 7 days measured on day 8 relative to untreated control. More on the design: scale not given: the % may be the effect or the level left.
For experiment [6], the system named is Rattus norvegicus. The experiment can be described thus: Antihyperlipidemic activity in high fat diet fed Sprague-Dawley Rattus norvegicus (rat) assessed as decrease in serum VLDL level at 50 mg/kg, po daily for 7 days measured on day 8 relative to untreated control. More on the design: scale not given: the % may be the effect or the level left.
Experiment [7] has as its system Rattus norvegicus. The experiment can be described thus: Antihyperlipidemic activity in high fat diet fed Sprague-Dawley Rattus norvegicus (rat) assessed as decrease in serum total cholesterol level at 50 mg/kg, po daily for 7 days measured on day 8 relative to untreated control. More on the design: scale not given: the % may be the effect or the level left.
The subject of experiment [8] is Rattus norvegicus. As to the kind of experiment: Antihyperlipidemic activity in high fat diet fed Sprague-Dawley Rattus norvegicus (rat) assessed as atherogenic index at 1 mg/kg, po daily for 7 days measured on day 8 (reference value: 4.15 +/-0.23 no unit).
In experiment [9] the test system is Rattus norvegicus. As to the kind of experiment: Antihyperlipidemic activity in high fat diet fed Sprague-Dawley Rattus norvegicus (rat) assessed as decrease in serum LDL level at 1 mg/kg, po daily for 7 days measured on day 8 relative to untreated control. More on the design: scale not given: the % may be the effect or the level left.
For experiment [10], the system named is Rattus norvegicus. As to the kind of experiment: Antihyperlipidemic activity in high fat diet fed Sprague-Dawley Rattus norvegicus (rat) assessed as increase in serum HDL level at 1 mg/kg, po daily for 7 days measured on day 8 relative to untreated control.
Experiment [11] relates to Rattus norvegicus. The experiment can be described thus: Antihyperlipidemic activity in high fat diet fed Sprague-Dawley Rattus norvegicus (rat) assessed as coronary risk index at 1 mg/kg, po daily for 7 days measured on day 8 (reference value: 5.21 +/-1.76 no unit).
In experiment [12] the test system is Rattus norvegicus. The experiment can be described thus: Antihyperlipidemic activity in high fat diet fed Sprague-Dawley Rattus norvegicus (rat) assessed as decrease in serum VLDL level at 1 mg/kg, po daily for 7 days measured on day 8 relative to untreated control. More on the design: scale not given: the % may be the effect or the level left.
The subject of experiment [13] is Rattus norvegicus. As to the kind of experiment: Antihyperlipidemic activity in high fat diet fed Sprague-Dawley Rattus norvegicus (rat) assessed as decrease in serum triglyceride level at 1 mg/kg, po daily for 7 days measured on day 8 relative to untreated control. More on the design: scale not given: the % may be the effect or the level left.
For experiment [14], the system named is Rattus norvegicus. The experiment can be described thus: Antihyperlipidemic activity in high fat diet fed Sprague-Dawley Rattus norvegicus (rat) assessed as decrease in serum total cholesterol level at 1 mg/kg, po daily for 7 days measured on day 8 relative to untreated control. More on the design: scale not given: the % may be the effect or the level left.

For `O=c1[nH]c(CF)nc2sc3c(c12)CCCC3`, the Activity is on record as 65.82% in the experiment on Rattus norvegicus [1]; 58.27% in the experiment with Rattus norvegicus [2]; 2.39 in the experiment with Rattus norvegicus [3]; 50.71% in the experiment on Rattus norvegicus [5]; 50.71% with Rattus norvegicus [6]; 40.44% in the experiment on Rattus norvegicus [7]. Further, the AI in the experiment on Rattus norvegicus [4] is 0.96.
Turning to `CCOC(=O)C1=C(C)C2C(=O)N=C(CF)N=C2S1` (stereo not drawn), the Activity in the experiment with Rattus norvegicus [1] came out at 86.92%; with Rattus norvegicus [2], 73.48%; in the experiment on Rattus norvegicus [3], 1.69; in the experiment with Rattus norvegicus [5], 57.77%; with Rattus norvegicus [6], 57.76%; in the experiment with Rattus norvegicus [7], 56.19%. The AI with Rattus norvegicus [4] was 0.31.
In the case of `Cc1sc2nc(CF)[nH]c(=O)c2c1C`, the Activity was 45.91% with Rattus norvegicus [1]; 44.68% in the experiment on Rattus norvegicus [2]; 3.14 with Rattus norvegicus [3]; 37.8% with Rattus norvegicus [5]; 37.83% in the experiment with Rattus norvegicus [6]; 32.48% with Rattus norvegicus [7]. Besides, in the experiment with Rattus norvegicus [4], the AI came to 1.46.
Take `O=c1[nH]c(CF)nc2scc(-c3ccccc3)c12`: the Activity in the experiment on Rattus norvegicus [1] worked out at 56.47%; in the experiment on Rattus norvegicus [2] it was 46.43%; with Rattus norvegicus [3], 2.63; in the experiment with Rattus norvegicus [5], 49.36%; in the experiment on Rattus norvegicus [6], 49.37%; in the experiment with Rattus norvegicus [7] it was 37.45%. For the same compound, the AI with Rattus norvegicus [4] is 1.13.
As to `Cc1sc2nc(CF)[nH]c(=O)c2c1-c1ccccc1`, the Activity in the experiment with Rattus norvegicus [1] stood at 48.7%; in the experiment on Rattus norvegicus [2], 41.31%; in the experiment on Rattus norvegicus [3] it was 3.18; in the experiment with Rattus norvegicus [5], 39.74%; with Rattus norvegicus [6], 39.77%; in the experiment on Rattus norvegicus [7], 33.18%. Further, the AI in the experiment on Rattus norvegicus [4] was 1.51.
For the compound `O=c1[nH]c(CF)nc2scc(-c3ccc(Cl)cc3)c12`, the Activity was 72.47% in the experiment with Rattus norvegicus [1]; 79.63% in the experiment with Rattus norvegicus [2]; 2.05 with Rattus norvegicus [3]; 51.91% with Rattus norvegicus [5]; 51.91% in the experiment on Rattus norvegicus [6]; 44.99% with Rattus norvegicus [7]. In addition, in the experiment on Rattus norvegicus [4], the AI came to 0.63.
`O=c1[nH]c(CF)nc2ccccc12`: the Activity amounted to 57.31% in the experiment with Rattus norvegicus [1]; 52.4% in the experiment with Rattus norvegicus [2]; 2.75 in the experiment with Rattus norvegicus [3]; 46.19% with Rattus norvegicus [5]; 46.8% in the experiment with Rattus norvegicus [6]; 38.24% with Rattus norvegicus [7]. Besides, the AI in the experiment on Rattus norvegicus [4] stood at 1.2.
For the compound `COc1cc2nc(CF)[nH]c(=O)c2cc1OC`, the Activity in the experiment with Rattus norvegicus [1] came out at 40.26%; with Rattus norvegicus [2], 62.44%; in the experiment on Rattus norvegicus [3], 3.16; in the experiment on Rattus norvegicus [5] it was 45.14%; in the experiment on Rattus norvegicus [6] it was 45.85%; with Rattus norvegicus [7], 26.27%. The AI with Rattus norvegicus [4] was found to be 1.53.
Take `O=C1[C@H](CC[C@H](O)c2ccc(F)cc2)[C@@H](c2ccc(O)cc2)N1c1ccc(F)cc1` [EZETIMIBE]: the AI in the experiment on Rattus norvegicus [8] came out at 0.58. Further, the Activity was 75.41% in the experiment with Rattus norvegicus [9]; 74.96% in the experiment on Rattus norvegicus [10]; 2.01 with Rattus norvegicus [11]; 52.22% in the experiment on Rattus norvegicus [12]; 52.23% with Rattus norvegicus [13]; 47.57% with Rattus norvegicus [14].
